This note sets out measurements from ChEMBL document CHEMBL1143778, “Studies towards the identification of a new generation of atypical antipsychotic agents” (Bioorg Med Chem Lett, 2007).

The term Ki denotes a dissociation constant, usually derived from enzyme kinetics or from competition with a known ligand. Broadly, the IC50 is the concentration at which inhibition is half-maximal. High values mean weaker potency in that assay, low ones greater potency in that assay. The EC50 is the concentration needed to bring the measured effect to its halfway point. High values mean lower potency in that assay, low ones higher potency in that assay. As a reminder, the ED50 is the dose at which the effect has come halfway, by size or by number of responders.

Several values for one entry are separate records, joined by “and”; a condition that tells them apart may be missing. Equal entries are not always repeated. Bounds are passed on as bounds.

The target in series [1] is T1, D(3) dopamine receptor (Homo sapiens, UniProt P35462). Description: Displacement of [125I]iodosulpiride from human recombinant dopamine D3 receptor expressed in CHO cells. The class given is cell-based.
T1 sequence (P35462 whole entry): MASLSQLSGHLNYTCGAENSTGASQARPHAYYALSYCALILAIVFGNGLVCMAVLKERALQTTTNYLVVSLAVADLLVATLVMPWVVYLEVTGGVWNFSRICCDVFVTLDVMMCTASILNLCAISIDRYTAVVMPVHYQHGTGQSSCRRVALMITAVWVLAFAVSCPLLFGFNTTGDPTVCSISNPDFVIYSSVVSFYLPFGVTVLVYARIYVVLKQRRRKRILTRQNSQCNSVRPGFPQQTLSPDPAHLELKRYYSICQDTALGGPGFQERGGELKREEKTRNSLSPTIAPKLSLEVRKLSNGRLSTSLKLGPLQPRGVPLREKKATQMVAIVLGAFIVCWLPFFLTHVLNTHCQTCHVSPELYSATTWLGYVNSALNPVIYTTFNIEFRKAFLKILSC
Series [2] addresses T2, D(2) dopamine receptor (Homo sapiens, UniProt P14416). In words: Displacement of [125I]iodosulpiride from human recombinant dopamine D2 receptor expressed in CHO cells. The class given is cell-based. (In general: Displacement assays read how much labelled ligand stays bound in the presence of the test substance.)
The target of series [3] is T3, 5-hydroxytryptamine receptor 2A (Homo sapiens, UniProt P28223). In words: Displacement of radioligand from human recombinant 5HT2A receptor.
T3 sequence (P28223 whole entry): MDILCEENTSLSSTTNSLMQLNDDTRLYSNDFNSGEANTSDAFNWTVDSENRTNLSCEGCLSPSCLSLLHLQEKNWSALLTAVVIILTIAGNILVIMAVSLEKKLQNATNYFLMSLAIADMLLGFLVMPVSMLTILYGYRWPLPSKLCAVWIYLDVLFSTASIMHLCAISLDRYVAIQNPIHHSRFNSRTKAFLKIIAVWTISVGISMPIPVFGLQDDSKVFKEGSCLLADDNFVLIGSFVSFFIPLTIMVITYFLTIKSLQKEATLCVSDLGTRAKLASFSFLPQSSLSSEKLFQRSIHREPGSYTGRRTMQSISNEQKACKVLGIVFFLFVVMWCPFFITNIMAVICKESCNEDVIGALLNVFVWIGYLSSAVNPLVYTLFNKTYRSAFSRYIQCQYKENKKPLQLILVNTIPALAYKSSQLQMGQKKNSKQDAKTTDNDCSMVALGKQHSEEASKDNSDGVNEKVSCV
Series [4] has as its target T4, 5-hydroxytryptamine receptor 2C (Homo sapiens, UniProt P28335).
T4 sequence (P28335 whole entry): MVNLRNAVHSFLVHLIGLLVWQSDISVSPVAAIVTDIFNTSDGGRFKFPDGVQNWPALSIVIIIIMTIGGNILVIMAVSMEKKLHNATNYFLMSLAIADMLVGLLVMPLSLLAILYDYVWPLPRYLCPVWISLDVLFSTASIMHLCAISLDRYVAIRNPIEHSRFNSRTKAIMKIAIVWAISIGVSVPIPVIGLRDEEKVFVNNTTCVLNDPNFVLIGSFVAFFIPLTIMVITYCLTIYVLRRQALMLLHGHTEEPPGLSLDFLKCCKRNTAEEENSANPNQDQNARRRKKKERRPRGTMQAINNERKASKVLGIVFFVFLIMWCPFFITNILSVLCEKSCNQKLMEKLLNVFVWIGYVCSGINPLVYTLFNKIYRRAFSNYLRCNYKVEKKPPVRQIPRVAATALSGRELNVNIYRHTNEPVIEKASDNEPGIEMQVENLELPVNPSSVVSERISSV
In words: Displacement of radioligand from human recombinant 5HT2C receptor.

For series [5], the target named is T5, 5-hydroxytryptamine receptor 6 (Homo sapiens, UniProt P50406). In words: Displacement of radioligand from human recombinant 5HT6 receptor.
T5 sequence (P50406 whole entry): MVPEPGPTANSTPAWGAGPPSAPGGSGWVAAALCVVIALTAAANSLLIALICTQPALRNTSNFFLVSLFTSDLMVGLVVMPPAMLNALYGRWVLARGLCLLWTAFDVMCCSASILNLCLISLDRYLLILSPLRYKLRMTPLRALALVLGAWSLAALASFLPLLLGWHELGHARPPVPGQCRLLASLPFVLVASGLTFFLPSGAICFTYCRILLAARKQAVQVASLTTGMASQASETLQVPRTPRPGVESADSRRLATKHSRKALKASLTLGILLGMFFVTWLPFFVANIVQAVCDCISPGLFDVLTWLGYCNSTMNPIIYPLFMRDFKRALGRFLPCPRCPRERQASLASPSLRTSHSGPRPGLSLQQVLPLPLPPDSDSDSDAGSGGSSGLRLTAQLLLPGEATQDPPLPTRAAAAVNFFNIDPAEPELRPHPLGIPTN
A further series has as its target Cytochrome P450 2C19 (Homo sapiens, UniProt P33261). In words: Inhibition of CYP2C19. The format is ADME.
Another series concerns the target Cytochrome P450 2C9 (Homo sapiens, UniProt P11712). Description: Inhibition of CYP2C9. The format is ADME.
The next series addresses Cytochrome P450 2D6 (Homo sapiens, UniProt P10635). In words: Inhibition of CYP2D6. The class given is ADME.
The target in the next series is Cytochrome P450 3A4 (Homo sapiens, UniProt P08684). Description: Inhibition of CYP3A4. The format is ADME.
Cytochrome P450 3A4, sequence (P08684 whole entry): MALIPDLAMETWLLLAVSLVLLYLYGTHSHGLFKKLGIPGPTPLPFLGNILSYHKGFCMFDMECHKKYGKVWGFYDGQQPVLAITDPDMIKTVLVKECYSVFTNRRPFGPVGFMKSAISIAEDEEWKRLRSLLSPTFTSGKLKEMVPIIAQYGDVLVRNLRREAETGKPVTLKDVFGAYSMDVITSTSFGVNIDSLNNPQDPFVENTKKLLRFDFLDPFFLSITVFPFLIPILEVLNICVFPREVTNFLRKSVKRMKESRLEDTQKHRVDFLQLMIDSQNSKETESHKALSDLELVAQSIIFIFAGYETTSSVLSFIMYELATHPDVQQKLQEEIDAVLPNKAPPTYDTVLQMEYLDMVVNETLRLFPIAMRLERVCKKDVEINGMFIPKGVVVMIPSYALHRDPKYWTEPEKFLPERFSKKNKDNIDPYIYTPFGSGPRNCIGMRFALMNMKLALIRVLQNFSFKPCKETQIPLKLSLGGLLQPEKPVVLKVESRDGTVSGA
For the next series, the target named is T6, Cytochrome P450 1A2 (Homo sapiens, UniProt P05177).
T6 sequence (P05177 whole entry): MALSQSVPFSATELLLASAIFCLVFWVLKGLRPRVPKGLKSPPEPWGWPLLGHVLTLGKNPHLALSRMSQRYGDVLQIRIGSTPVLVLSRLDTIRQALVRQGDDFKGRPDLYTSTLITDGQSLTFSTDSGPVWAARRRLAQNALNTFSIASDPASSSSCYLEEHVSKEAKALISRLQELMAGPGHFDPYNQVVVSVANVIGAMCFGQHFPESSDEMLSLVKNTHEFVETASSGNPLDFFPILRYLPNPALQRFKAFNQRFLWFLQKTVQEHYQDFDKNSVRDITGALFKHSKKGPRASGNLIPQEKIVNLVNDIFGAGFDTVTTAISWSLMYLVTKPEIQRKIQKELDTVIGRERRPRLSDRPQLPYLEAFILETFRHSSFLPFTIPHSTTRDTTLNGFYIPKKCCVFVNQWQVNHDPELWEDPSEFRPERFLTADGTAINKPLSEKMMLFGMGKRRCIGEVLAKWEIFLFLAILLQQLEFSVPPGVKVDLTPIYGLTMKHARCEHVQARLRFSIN
Description: Inhibition of CYP1A2. The class given is ADME.

Series [6] deals with T1, D(3) dopamine receptor. In words: Agonist activity at human dopamine D3 receptor by [35S]GTP-gamma-S binding assay. The class given is functional. A general note: Binding of GTPγS marks nucleotide exchange on a G protein.
Series [7] has as its target T2, D(2) dopamine receptor. In words: Agonist activity at human dopamine D2 receptor by [35S]GTPgammaS binding assay. The class given is functional.
For series [8], the system named is Rattus norvegicus. In words: Reversal of amphetamine-induced hyperactivity in orally dosed rat. Conditions: po; call rule not given here. The class given is functional.
Series [9] relates to Rattus norvegicus. Description: Toxicity assessed as induction of catalepsy in rat model of extra-pyramidal side effect up to 100 mg/kg, po. The format is organism-based. The arrangement: dose 100 mg/kg, route oral. Conditions: in vivo.
In series [10] the target is T3, 5-hydroxytryptamine receptor 2A. Description: Agonist activity at human 5HT2A receptor by FLIPR assay. The format is functional.
Series [11] deals with T4, 5-hydroxytryptamine receptor 2C. Description: Agonist activity at human 5HT2C receptor by FLIPR assay. The class given is functional.
For series [12], the target named is T5, 5-hydroxytryptamine receptor 6. Description: Agonist activity at human 5HT6 receptor by cAMP assay. The class given is functional.

Cytochrome P450 2D6, sequence (P10635 whole entry): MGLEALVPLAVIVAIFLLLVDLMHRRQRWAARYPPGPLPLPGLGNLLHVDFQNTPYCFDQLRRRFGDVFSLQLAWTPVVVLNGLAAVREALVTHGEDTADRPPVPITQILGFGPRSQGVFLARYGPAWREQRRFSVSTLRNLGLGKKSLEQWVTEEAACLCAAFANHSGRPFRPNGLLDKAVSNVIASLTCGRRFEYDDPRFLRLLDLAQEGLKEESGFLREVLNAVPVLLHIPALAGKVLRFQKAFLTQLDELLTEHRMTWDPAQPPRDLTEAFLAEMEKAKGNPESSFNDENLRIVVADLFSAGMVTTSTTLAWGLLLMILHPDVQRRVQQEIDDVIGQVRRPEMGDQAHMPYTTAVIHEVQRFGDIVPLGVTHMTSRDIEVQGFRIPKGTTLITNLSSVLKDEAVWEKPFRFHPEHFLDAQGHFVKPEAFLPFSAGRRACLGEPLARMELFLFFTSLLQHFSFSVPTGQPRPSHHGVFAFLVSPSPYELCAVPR
Cytochrome P450 2C9, sequence (P11712 whole entry): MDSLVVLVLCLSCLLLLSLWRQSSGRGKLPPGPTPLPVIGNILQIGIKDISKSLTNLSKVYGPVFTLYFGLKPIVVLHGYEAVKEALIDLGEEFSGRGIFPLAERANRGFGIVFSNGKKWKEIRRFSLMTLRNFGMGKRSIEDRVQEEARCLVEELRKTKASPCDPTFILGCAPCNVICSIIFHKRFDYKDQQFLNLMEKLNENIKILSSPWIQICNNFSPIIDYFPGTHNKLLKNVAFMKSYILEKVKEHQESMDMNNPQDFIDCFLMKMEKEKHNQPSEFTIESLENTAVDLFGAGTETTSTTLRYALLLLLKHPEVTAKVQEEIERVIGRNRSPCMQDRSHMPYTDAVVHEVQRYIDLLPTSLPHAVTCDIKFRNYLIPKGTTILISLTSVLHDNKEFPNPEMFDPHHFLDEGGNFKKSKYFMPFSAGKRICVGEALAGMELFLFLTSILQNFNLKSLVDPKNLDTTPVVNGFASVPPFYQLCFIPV
T2 sequence (P14416 whole entry): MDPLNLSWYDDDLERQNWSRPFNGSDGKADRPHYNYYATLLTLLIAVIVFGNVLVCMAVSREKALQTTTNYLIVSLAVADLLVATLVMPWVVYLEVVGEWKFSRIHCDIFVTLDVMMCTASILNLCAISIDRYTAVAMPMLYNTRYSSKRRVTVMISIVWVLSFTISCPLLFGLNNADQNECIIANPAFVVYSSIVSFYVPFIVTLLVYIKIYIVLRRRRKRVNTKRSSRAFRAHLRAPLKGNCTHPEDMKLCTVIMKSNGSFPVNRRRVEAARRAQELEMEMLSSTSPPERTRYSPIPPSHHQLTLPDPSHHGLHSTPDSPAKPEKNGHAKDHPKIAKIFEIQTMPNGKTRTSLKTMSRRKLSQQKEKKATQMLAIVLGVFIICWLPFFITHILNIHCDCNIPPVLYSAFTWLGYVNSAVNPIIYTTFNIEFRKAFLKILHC
Cytochrome P450 2C19, sequence (P33261 whole entry): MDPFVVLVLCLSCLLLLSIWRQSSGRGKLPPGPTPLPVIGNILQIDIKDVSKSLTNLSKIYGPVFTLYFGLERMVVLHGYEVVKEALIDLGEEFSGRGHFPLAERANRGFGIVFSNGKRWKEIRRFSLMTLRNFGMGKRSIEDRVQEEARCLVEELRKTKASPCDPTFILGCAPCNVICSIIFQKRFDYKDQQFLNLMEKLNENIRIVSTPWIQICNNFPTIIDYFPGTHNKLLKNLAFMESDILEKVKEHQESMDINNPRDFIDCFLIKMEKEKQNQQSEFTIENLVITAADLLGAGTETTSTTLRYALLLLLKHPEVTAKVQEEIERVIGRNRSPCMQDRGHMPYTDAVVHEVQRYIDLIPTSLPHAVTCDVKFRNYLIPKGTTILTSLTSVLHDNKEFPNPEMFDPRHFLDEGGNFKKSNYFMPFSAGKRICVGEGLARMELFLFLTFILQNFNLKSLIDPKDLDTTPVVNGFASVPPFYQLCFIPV

Consider `CC(C)Nc1cc2c(cc1NS(=O)(=O)c1ccc(-c3ccc(Cl)cc3)cc1)CCN(C)CC2`, for which the Ki at D(3) dopamine receptor [1] was 3.16 nM; on D(2) dopamine receptor [2] it was 50.1 nM; in series [3] it was 1.58 nM; in series [4], 5.01 nM; in [5], 7.94 nM. In addition, the IC50 against Cytochrome P450 2C19 came out at 25000 nM; against Cytochrome P450 2C9, 17000 nM; on Cytochrome P450 2D6 it was 19000 nM; against Cytochrome P450 3A4 it was 7500 nM; against Cytochrome P450 1A2, 51000 nM. The concentration for a half-maximal effect (EC50) was greater than 10000 nM on D(3) dopamine receptor [6]; greater than 10000 nM at D(2) dopamine receptor [7]; greater than 12600 nM in series [10]; greater than 12600 nM in [11]; greater than 25100 nM in series [12]. Besides, the 50% effective dose (ED50) in the series on Rattus norvegicus [8] came out at 20.6 mg/kg. Also, the Activity result in the series on Rattus norvegicus [9] is recorded as “Not Active”.

Regarding `CN1CCc2cc(Br)c(NS(=O)(=O)c3ccc(-c4ccc(Cl)cc4)cc3)cc2CC1`, the Ki was 5.01 nM on D(3) dopamine receptor [1], 63.1 nM at D(2) dopamine receptor [2], 126 nM in series [4] and 50.1 nM in [5].

Take `Cc1cc(S(=O)(=O)Nc2ccc3c(c2)CCN(C)CC3)ccc1-c1ccc(Cl)cc1`: the Ki at D(3) dopamine receptor [1] is 6.31 nM; at D(2) dopamine receptor [2] it was 31.6 nM; in series [3] it was 126 nM; in [4] it was 50.1 nM; in series [5] it was 5.01 nM.

For the molecule `CCCCc1ccc(S(=O)(=O)Nc2ccc3c(c2)CNCC3)cc1`, the inhibitory constant (Ki) is 12.6 nM and 10 nM on D(3) dopamine receptor [1]; 794 nM and 1000 nM on D(2) dopamine receptor [2]; 12.6 nM in series [3]; 31.6 nM in series [4]; 25.1 nM in [5]. Also, the results for the “Log Ki” value in series [3], in [4] and in series [5] were -7.9, -7.5 and -7.6, respectively.

Take `CCCCc1ccc(S(=O)(=O)Nc2ccc3c(c2)CNC3)cc1`: the Ki on D(3) dopamine receptor [1] was 39.8 nM; at D(2) dopamine receptor [2], 794 nM; in [5], 50.1 nM.

With `Cc1cc2c(cc1NS(=O)(=O)c1ccc(-c3ccc(Cl)cc3)cc1)CCN(C)CC2`, the Ki on D(3) dopamine receptor [1] is 1.58 nM; on D(2) dopamine receptor [2], 15.8 nM; in [3], 20 nM; in series [4], 79.4 nM; in series [5], 15.8 nM.

In the case of `CN1CCc2ccc(NS(=O)(=O)c3ccc(-c4ccc(C#N)cc4)cc3)cc2CC1`, the Ki at D(3) dopamine receptor [1] is 15.8 nM; at D(2) dopamine receptor [2], 501 nM; in series [3], 794 nM; in [4], 100 nM; in series [5], 25.1 nM.

On to `CCCCc1ccc(S(=O)(=O)Nc2ccc3c(c2)CN(C)C3)cc1`, for which the Ki at D(3) dopamine receptor [1] was 20 nM; at D(2) dopamine receptor [2], 200 nM; in series [3], 5.01 nM; in [4], 10 nM; in [5], 5.01 nM.

As to `CN1CCc2ccc(NS(=O)(=O)c3ccc(-c4ccc(F)c(Cl)c4)cc3)cc2CC1`, the Ki was 3.98 nM at D(3) dopamine receptor [1]; 50.1 nM at D(2) dopamine receptor [2]; 50.1 nM in series [3]; 31.6 nM in series [4]; 7.94 nM in series [5].

As to `CC(C)Oc1cc2c(cc1NS(=O)(=O)c1ccc(-c3ccc(Cl)cc3)cc1)CCN(C)CC2`, the Ki at D(3) dopamine receptor [1] is 0.794 nM; at D(2) dopamine receptor [2] it was 6.31 nM; in series [3], 15.8 nM; in series [4], 39.8 nM; in [5], 31.6 nM.

With `CCCCc1ccc(S(=O)(=O)Nc2ccc3c(c2)CCN(C)CC3)cc1`, the inhibitory constant (Ki) on D(3) dopamine receptor [1] was 2 nM; at D(2) dopamine receptor [2] it was 31.6 nM; in series [3], 5.01 nM; in [4], 10 nM; in [5], 1.26 nM. Also, the IC50 amounted to 500 nM on Cytochrome P450 2C19; 47000 nM on Cytochrome P450 2C9; 1600 nM against Cytochrome P450 2D6; 12000 nM at Cytochrome P450 3A4; 23000 nM on Cytochrome P450 1A2.

In the case of `COc1cc2c(cc1NS(=O)(=O)c1ccc(-c3ccc(Cl)cc3)cc1)CCN(C)CC2`, the Ki on D(3) dopamine receptor [1] was 0.794 nM; on D(2) dopamine receptor [2], 3.98 nM; in [3], 25.1 nM; in [4] it was 39.8 nM; in [5], 10 nM.

Turning to `CC(C)c1cc2c(cc1NS(=O)(=O)c1ccc(-c3ccc(Cl)cc3)cc1)CCN(C)CC2`, the Ki at D(3) dopamine receptor [1] is 3.98 nM; at D(2) dopamine receptor [2], 100 nM; in series [3], 5.01 nM; in series [4], 15.8 nM; in [5], 12.6 nM.

For the molecule `CN1CCc2ccc(NS(=O)(=O)c3ccc(-c4ccc(Cl)cc4)s3)cc2CC1`, the Ki at D(3) dopamine receptor [1] is 39.8 nM; at D(2) dopamine receptor [2] it was 398 nM; in series [4] it was 126 nM; in series [5], 3.98 nM.

In the case of `Cc1noc(C)c1-c1ccc(S(=O)(=O)Nc2ccc3c(c2)CCN(C)CC3)cc1`, the Ki on D(3) dopamine receptor [1] was 15.8 nM; on D(2) dopamine receptor [2], 100 nM; in series [3], 1260 nM; in [4], 398 nM; in [5], 10 nM.

Take `CCCCc1ccc(S(=O)(=O)Nc2ccc3c(c2)CN(C)CC3)cc1`: the Ki is 25.1 nM at D(3) dopamine receptor [1] and 398 nM on D(2) dopamine receptor [2].

`CCCCc1ccc(S(=O)(=O)Nc2ccc3c(c2)CCNCC3)cc1`: the Ki is 15.8 nM on D(3) dopamine receptor [1]; 158 nM at D(2) dopamine receptor [2]; 15.8 nM in series [3]; 50.1 nM in series [4]; 2 nM in series [5].

Regarding `CN1CCc2ccc(NS(=O)(=O)c3ccc(-c4ccc(Cl)cc4)cc3)cc2CC1`, the Ki at D(3) dopamine receptor [1] is 15.8 nM; on D(2) dopamine receptor [2], 158 nM; in [3] it was 200 nM; in [4], 20 nM; in [5], 5.01 nM. For the same molecule, the IC50 is 16000 nM at Cytochrome P450 2C19; 45000 nM at Cytochrome P450 2C9; 1500 nM against Cytochrome P450 2D6; 58000 nM against Cytochrome P450 3A4; 25000 nM at Cytochrome P450 1A2.

`Cc1ccc(-c2ccc(S(=O)(=O)Nc3ccc4c(c3)CCN(C)CC4)cc2)s1`: the Ki on D(3) dopamine receptor [1] was 25.1 nM; on D(2) dopamine receptor [2] it was 316 nM; in series [3] it was 50.1 nM; in series [4], 12.6 nM; in [5] it was 6.31 nM.

In the case of `CN1CCc2cc(Cl)c(NS(=O)(=O)c3ccc(-c4ccc(Cl)cc4)cc3)cc2CC1`, the Ki at D(3) dopamine receptor [1] is 2.51 nM; at D(2) dopamine receptor [2], 39.8 nM; in [3] it was 31.6 nM; in series [4], 39.8 nM; in series [5], 50.1 nM.
